Test results taken from patent US9771341B2, “Piperazine carbamates and methods of making and using same” (Abide Therapeutics, Inc., priority 2015, dated 2017).

How the values were obtained:
Assay type in all cases: biochemical
FAAH = target: T1, FAAH (Mus musculus, UniProt O08914); assay: In vitro competitive activity-based protein profiling (mouse), FAAH; conditions: for IC50: mouse brain membrane fraction or cell lysates, 30 min preincubation at 37° C, FP-Rh probe; for inhibition at 1 µM: mouse proteome, in vitro
T1 construct: Proteomes (mouse brain membrane fraction or cell lysates); from tissue; host or cells: mouse brain membrane fraction (or unspecified cell lysates)
T1 sequence (O08914 1-579): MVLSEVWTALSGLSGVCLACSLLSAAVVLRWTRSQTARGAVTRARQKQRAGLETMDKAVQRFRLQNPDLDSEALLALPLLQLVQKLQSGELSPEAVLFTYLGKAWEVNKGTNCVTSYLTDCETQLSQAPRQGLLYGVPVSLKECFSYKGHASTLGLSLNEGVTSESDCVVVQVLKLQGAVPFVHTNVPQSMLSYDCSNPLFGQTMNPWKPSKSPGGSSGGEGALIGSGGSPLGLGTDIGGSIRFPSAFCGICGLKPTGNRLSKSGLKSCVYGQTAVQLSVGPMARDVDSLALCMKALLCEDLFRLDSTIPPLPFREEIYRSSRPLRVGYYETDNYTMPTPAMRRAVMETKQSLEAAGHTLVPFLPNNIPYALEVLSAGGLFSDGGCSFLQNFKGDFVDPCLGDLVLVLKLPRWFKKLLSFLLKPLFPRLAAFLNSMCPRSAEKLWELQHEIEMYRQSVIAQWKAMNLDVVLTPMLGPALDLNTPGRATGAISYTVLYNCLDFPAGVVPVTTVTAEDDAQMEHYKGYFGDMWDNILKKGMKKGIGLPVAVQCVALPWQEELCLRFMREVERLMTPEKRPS
Protocol: (§1) In Vitro Competitive Activity-Based Protein Profiling (Mouse).
Proteomes (mouse brain membrane fraction or cell lysates) (50 μL, 1.0 mg/mL total protein concentration) were preincubated with varying concentrations of inhibitors at 37° C. After 30 min, FP-Rh (1.0 μL, 50 μM in DMSO) was added and the mixture was incubated for another 30 min at 37° C. Reactions were quenched with SDS loading buffer (50 μL-4×) and run on SDS-PAGE. Following gel imaging, serine hydrolase activity was determined by measuring fluorescent intensity of gel bands corresponding to MAGL, ABHD6 and FAAH using ImageJ 1.43u software.

ABHD6 = target: T2, ABHD6 (Mus musculus, UniProt Q8R2Y0); assay: In vitro competitive activity-based protein profiling (mouse), ABHD6; conditions: for IC50: mouse brain membrane fraction or cell lysates, 30 min preincubation at 37° C, FP-Rh probe; for inhibition at 1 µM: mouse proteome, in vitro, read-out: % Inhibition at 1 μM ABHD6
T2 construct: Proteomes (mouse brain membrane fraction or cell lysates); from tissue; host or cells: mouse brain membrane fraction (or unspecified cell lysates)
T2 sequence (Q8R2Y0 1-336): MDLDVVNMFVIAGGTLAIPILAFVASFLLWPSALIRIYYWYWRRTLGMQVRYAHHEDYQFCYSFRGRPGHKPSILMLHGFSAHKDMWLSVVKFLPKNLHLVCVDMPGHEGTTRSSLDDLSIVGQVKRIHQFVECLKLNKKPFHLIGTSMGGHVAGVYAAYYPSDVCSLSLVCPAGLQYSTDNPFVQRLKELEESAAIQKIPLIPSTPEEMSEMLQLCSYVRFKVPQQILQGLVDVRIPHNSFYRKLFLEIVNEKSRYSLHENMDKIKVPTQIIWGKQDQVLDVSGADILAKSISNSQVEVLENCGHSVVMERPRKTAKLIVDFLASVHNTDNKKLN
Protocol: as §1
(§2) Proteomes (mouse brain membrane fraction or cell lysates) (50 μL, 1.0 mg/mL total protein concentration) were preincubated with varying concentrations of inhibitors at 37° C. After 30 min, FP-Rh (1.0 μL, 50 μM in DMSO) was added and the mixture was incubated for another 30 min at 37° C. Reactions were quenched with SDS loading buffer (50 μL-4×) and run on SDS-PAGE.

MAGL = target: T3, MAGL (Mus musculus, UniProt O35678); assay: In vitro competitive activity-based protein profiling (mouse), MAGL; conditions: for IC50: mouse brain membrane fraction or cell lysates, 30 min preincubation at 37° C, FP-Rh probe; for inhibition at 1 µM: mouse proteome, in vitro, read-out: % Inhibition at 1 μM MAGL
T3 construct: Proteomes (mouse brain membrane fraction or cell lysates); from tissue; host or cells: mouse brain membrane fraction (or unspecified cell lysates)
T3 sequence (O35678 1-303): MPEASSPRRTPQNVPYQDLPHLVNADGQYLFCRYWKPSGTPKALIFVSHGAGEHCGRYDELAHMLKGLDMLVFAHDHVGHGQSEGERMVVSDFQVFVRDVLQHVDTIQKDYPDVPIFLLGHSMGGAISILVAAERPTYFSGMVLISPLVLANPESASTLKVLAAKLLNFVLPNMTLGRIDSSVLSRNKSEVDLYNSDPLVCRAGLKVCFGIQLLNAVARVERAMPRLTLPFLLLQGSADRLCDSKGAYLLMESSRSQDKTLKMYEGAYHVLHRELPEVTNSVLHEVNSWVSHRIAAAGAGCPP
Protocol: as §1, §2

Row | IC50 (FAAH) [nM] | IC50 (ABHD6) [nM] | IC50 (MAGL) [nM] | inhibition at 1 µM (FAAH) [%] | inhibition at 1 µM (ABHD6) [%] | inhibition at 1 µM (MAGL) [%] | SMILES
1 | > 1000 | > 1000 | < 100 |  |  |  | C#CCO[C@@H]1CCN(c2cc(C(F)(F)F)ccc2CN2CCN(C(=O)OC(C(F)(F)F)C(F)(F)F)CC2)C1 [Example 2, 1,1,1,3,3,3-hexafluoropropan-2-yl (R)-4-(2-(3-(prop-2-yn-1-yloxy)pyrrolidin-1-yl)-4-(trifluoromethyl)benzyl)piperazine-1-carboxylate]
2 | > 1000 | 100 to 1000 | < 100 |  |  |  | COC(=O)c1cc(CN2CCN(C(=O)OC(C(F)(F)F)C(F)(F)F)CC2)ccc1N1CCOCC1 [Example 5, 1,1,1,3,3,3-hexafluoropropan-2-yl 4-(3-(methoxycarbonyl)-4-morpholinobenzyl)piperazine-1-carboxylate]
3 | > 1000 | 100 to 1000 | 100 to 1000 | < 25 | > 75 | > 75 | COc1c(CN2CCN(C(C)=O)CC2)cccc1CN1CCN(C(=O)OC(C(F)(F)F)C(F)(F)F)CC1 [Example 7, 1,1,1,3,3,3-hexafluoropropan-2-yl 4-(3-((4-acetylpiperazin-1-yl)methyl)-2-methoxybenzyl)piperazine-1-carboxylate]
4 | > 1000 | < 100 | < 100 | < 25 | > 75 | > 75 | Cc1c(CN2CCN(C(=O)OC(C(F)(F)F)C(F)(F)F)CC2)cccc1CN1CCN(S(C)(=O)=O)CC1 [Example 8, 1,1,1,3,3,3-hexafluoropropan-2-yl 4-(2-methyl-3-((4-(methylsulfonyl)piperazin-1-yl)methyl)benzyl)piperazine-1-carboxylate]
5 | > 1000 | 100 to 1000 | < 100 | < 25 | > 75 | > 75 | COc1c(CN2CCC(F)CC2)cccc1CN1CCN(C(=O)OC(C(F)(F)F)C(F)(F)F)CC1 [Example 9, 1,1,1,3,3,3-hexafluoropropan-2-yl 4-(3-((4-fluoropiperidin-1-yl)methyl)-2-methoxybenzyl)piperazine-1-carboxylate]
6 | > 1000 | 100 to 1000 | < 100 | < 25 | > 75 | > 75 | Cc1c(CN2CCC(NS(C)(=O)=O)CC2)cccc1CN1CCN(C(=O)OC(C(F)(F)F)C(F)(F)F)CC1 [Example 10, 1,1,1,3,3,3-hexafluoropropan-2-yl 4-(2-methyl-3-((4-(methylsulfonamido)piperidin-1-yl)methyl)benzyl)piperazine-1-carboxylate]
7 | > 1000 | 100 to 1000 | 100 to 1000 | < 25 | 25 to 75 | > 75 | CC(=O)NC1CCN(Cc2cccc(CN3CCN(C(=O)OC(C(F)(F)F)C(F)(F)F)CC3)c2C)CC1 [Example 11, 1,1,1,3,3,3-hexafluoropropan-2-yl 4-(3-((4-acetamidopiperidin-1-yl)methyl)-2-methylbenzyl)piperazine-1-carboxylate]
8 | > 1000 | 100 to 1000 | < 100 | < 25 | > 75 | > 75 | Cc1c(CN2CCN(C(=O)OC(C(F)(F)F)C(F)(F)F)CC2)cccc1CN1CCC(F)(F)CC1 [Example 12, 1,1,1,3,3,3-hexafluoropropan-2-yl 4-(3-((4,4-difluoropiperidin-1-yl)methyl)-2-methylbenzyl)piperazine-1-carboxylate]
9 | > 1000 | 100 to 1000 | 100 to 1000 | < 25 | > 75 | > 75 | Cc1c(CN2CCCC2)cccc1CN1CCN(C(=O)OC(C(F)(F)F)C(F)(F)F)CC1 [Example 13, 1,1,1,3,3,3-hexafluoropropan-2-yl 4-(2-methyl-3-(pyrrolidin-1-ylmethyl)benzyl)piperazine-1-carboxylate]
